Measurements published in patent publication US8106155B2, “Test kit for determining process for determining antibiotics containing a beta-lactam ring in a biological fluid” (Neogen Corporation, priority 1998, dated 2012).

Tests used:
[1] = biological target: T1, BlaR-CTD receptor in the form of two fusion proteins with alkaline phosphatase and peroxidase (Bacillus licheniformis, UniProt P12287); assay: Example 3: BlaR-CTD fusion proteins with alkaline phosphatase and peroxidase, cephalosporin C microplate, milk; assay type: binding; settings: absorbance at 405 nm, 47° C., at the control thresholds required by the US authorities
T1 construct: uses the BlaR-CTD receptor in the form of two fusion proteins with alkaline phosphatase and peroxidase, respectively; alkaline phosphatase, chemically coupled (Boehringer-Mannheim 1464752); peroxidase, chemically coupled (Boehringer-Mannheim 1428861)
Text: This example illustrates the detection in milk of 3 antibiotics containing a β-lactam ring which are controlled by the health authorities. The test described in this example uses the BlaR-CTD receptor in the form of two fusion proteins with alkaline phosphatase and peroxidase, respectively, and uses a support in the form of a microplate.
Polystyrene microplates with high protein adsorption, of the brand name NUNK (Immuno Plate: Maxisorp type) or of the brand name GREINER (microlon 600, reference 705071), are used. The microplate cuvettes are washed with 150 mM, pH 7.2 PBS buffer. Next, an aliquot of the solution prepared in Example 3.3.1. is incubated for 24 hours at 4° C. in the cuvettes. After incubation, the cuvettes are washed three times with 150 mM, pH 7.2 PBS buffer, 0.1% Tween-20. The tube is then saturated for two hours at 20° C. with 150 mM, pH 7.2 PBS saturation buffer, 5% BSA. After washing three times with washing buffer, the tubes are dried and stored at 4° C. away from moisture.
For the cuvettes intended for the BlaR-CTD-alkaline phosphatase recognition agent, the washing buffer used is 1 M, pH 9.8 diethanolamine, 0.5 mM MgCl2: for the cuvettes intended for the BlaR-CTD-peroxidase recognition agent, the washing buffer used is 50 mM, pH 5 potassium phosphate.
1.4 picomol of labelled recognition agent are incubated in the presence of 100 μl of doped milk for 5 minutes at 47° C. The milk is transferred using a pipette into a cuvette which has been pretreated as indicated in Example 2.3. The milk is then incubated for 2 minutes at 47° C. […] The plate is then placed in an automatic spectrophotometer for ELISA plates, the wavelength being set at 405 nm.

[2] = biological target: T2, BlaR-CTD-β-lactamase fusion protein (UniProt P04190+P12287); assay: Example 2: BlaR-CTD-β-lactamase fusion protein with cephalosporin C magnetic beads, milk; assay type: binding, Bacillus licheniformis; settings: nitrocefine absorbance at 482 nm, 47° C., detection at concentrations below the US standards listed
T2 construct: made in house; host or cells: E. coli
T2 sequence (P12287+P04190 with tags, fused parts or gaps): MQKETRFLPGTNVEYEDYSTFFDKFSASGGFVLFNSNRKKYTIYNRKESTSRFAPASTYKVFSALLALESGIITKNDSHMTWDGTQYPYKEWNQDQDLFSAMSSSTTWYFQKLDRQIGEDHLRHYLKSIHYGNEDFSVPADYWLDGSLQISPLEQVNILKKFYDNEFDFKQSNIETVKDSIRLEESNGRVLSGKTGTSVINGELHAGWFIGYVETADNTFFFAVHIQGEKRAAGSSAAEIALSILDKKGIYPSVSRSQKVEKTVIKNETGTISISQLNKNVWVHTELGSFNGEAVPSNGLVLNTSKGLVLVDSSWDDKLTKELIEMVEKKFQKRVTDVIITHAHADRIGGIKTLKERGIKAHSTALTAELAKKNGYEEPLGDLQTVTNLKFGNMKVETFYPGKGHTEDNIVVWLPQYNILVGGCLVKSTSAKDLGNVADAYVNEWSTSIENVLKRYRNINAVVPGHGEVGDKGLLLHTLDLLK
Text: This example illustrates the detection in milk of the 6 antibiotics containing a β-lactam ring which are controlled by the US authorities. The test described in this example uses the BlaR-CTD receptor in the form of a fusion protein with β-lacatamase and uses a support in the form of magnetic beads.
The BlaR-CTD-β-lactamase fusion protein is obtained by genetic coupling between the BlaR-CTD receptor (B. Joris et al., FEMS Microbiology Letters, 107-114, 1990) and Zn β-lactamase from Bacillus cereus (M. Hussain et al., 1985, J. Bact., 164:1, 223-229, 1985).
BioMag 4100 particles (available from DRG Instrument GmbH, Marburg, Germany, under the reference AM 4100 B) are used, the NH2 ends of which have been activated with glutaraldehyde in the following way: • one volume of initial solution of BioMag 4100 particles is rinsed 4 times with 5 volumes of 0.01M pH 6.0 pyridine buffer. The particles are taken up in 2.5 volumes of glutaraldehyde at 5% in pyridine buffer and are agitated by rotation for 3 hours at room temperature. They are then rinsed 10 times with 2 volumes of 0.01 M pH 7.0 Kpi buffer. The particles are then resuspended in 1 volume of 0.1 M cephalosporin C in Kpi buffer and are agitated by rotation overnight at +4° C. The final rinsing is carried out until the cephalasporin C has been completely removed from the 0.1 M pH 7.0 Kpi buffer. 2.3. Determination of the 6 Antibiotics Penicillin G, Ampicillin, Amoxicillin, Cloxacillin, Cephapirin and Certiofur in Milk. […]
50 μl of solution 1 are placed in the presence of […] of doped milk samples and incubated at 47° C. for 2 minutes. […] The absorbance of the residual solution at 482 nm is then measured relative to the nitrocefine solution.

SMILES | concentration detected in milk [1] | concentration detected in milk [2]
CO/N=C(\C(=O)N[C@@H]1C(=O)N2C(C(=O)O)=C(CSC(=O)c3ccco3)CS[C@H]12)c1csc(N)n1 [ceftiofur] | 50 ppb | < 50 ppb
CC(=O)OCC1=C(C(=O)O)N2C(=O)[C@@H](NC(=O)CSc3ccncc3)[C@H]2SC1 [cephapirin] | – | < 20 ppb
CC1(C)S[C@@H]2[C@H](NC(=O)Cc3ccccc3)C(=O)N2[C@H]1C(=O)O [penicillin G] | 5 ppb | < 5 ppb
